Test results reported in patent publication US12264156B2, “Compounds and pharmaceutical compositions thereof for the treatment of diseases” (GALAPAGOS NV, priority 2018, dated 2025).

Test system: LPS triggered IL-10 secretion in monocyte-derived macrophages (MdM)
Test: MdM assay: LPS-triggered IL-10 (ELISA)
Assay type: cell-based, human
Settings: LPS 200 ng/mL, supernatant after 2 h, maximal fold change vs LPS only
Description: SIK inhibition inhibits TNFα and increases IL-10 release in LPS triggered monocyte-derived macrophages (MdM) and dendritic […] al. 2012; Sundberg et al. 2014; Ozanne et al. 2015). This assay evaluates illustrative compounds of the invention for their inhibition of LPS-induced TNFα and LPS triggered IL-10 secretion in monocyte-derived macrophages. PBMCs are isolated from human blood samples (buffycoats). The buffy coat is aseptically transferred into a 50 mL Falcon tube, and diluted 1/2 in PBS. Falcon tubes are filled with 20 mL LymphoprepTM, on top of which 25 mL of the buffy coat is carefully added, tubes are centrifuged for 35 min at 400 g in temperature controlled centrifuge, without brake, at 25° C. PBMCs are aspirated from the white interface layer between sample and LymphoprepTM. PBMCs are washed five times in PBS. Cells are resuspended in RPMI 1640 complete medium supplemented with 10% FBS, 1% P/S, and cell density is determined using a hematologic analyzer (Sysmex XS-500i). PBMCs are centrifuged at 300×g for 10 min and resuspended at a density of 1.0*10^7 cells/80 μL Miltenyi buffer (PBS, pH 7.4, 1% FBS, 2 mM EDTA). Starting from this point of the protocol all steps are performed on ice. 20 μL of CD14+ micro-beads are added per 1.0*10^7 cells, the tube is mixed and incubated for 15 min in the fridge at 4° C. Cell suspension volume is adjusted to total volume of 100 mL using Miltenyi buffer, mixed gently and subsequently centrifuged for 10 min at 300×g. Supernantant is discarded and cell pellet is resuspended in 12 mL of Miltenyi buffer. Four LS columns are placed in the MACS Separator (magnet) from Miltenyi Biotec, and are prewet by rinsing with 3 mL of MACS buffer per column. Three mL of cell suspension is added onto the column (max 1*10^8 of labelled cells/column), and columns are subsequently washed 3 times with 3 mL of Miltenyi buffer. The columns are removed from the magnets, and 5 mL of Miltenyi buffer are added to the column to flush out the CD14+ fraction by pushing the plunger into the column. The flushed fractions are collected in a fresh 50 mL Falcon and volume is adjusted to 30 mL using Miltenyi buffer, cells are centrifuged for 10 min at 300×g. The obtained cell pellet is resuspended in 10 mL RPMI w/o FBS, and cell density is determined using a hematologic analyser (Sysmex XS-500i). 100 000 cells are seeded per well of a 96-well plate for differentiation to MdM in RPMI 1640 medium supplemented with 10% FBS, 1% P/S and 100 ng/mL rhM-CSF. On day 5 the medium is refreshed with 100 μL RPMI 1640 medium supplemented with 10% FBS, 1% P/S and 100 ng/mL rhM-CSF. On day 10, MdMs are triggered and compound is added. A compound dilution plate is made in 100% DMSO by 3-fold dilution of 10 mM stock solution. An intermediate dilution plate (10× final concentration) is made by diluting the compound dilution plate 50-fold in RPMI medium. Medium is carefully removed from cell plates using multichannel pipette, and replaced by 80 μL fresh medium. 10 μL of the 10× final concentration compound is added to the cells and incubated for 1 hour at 37° C. before addition of trigger. No trigger conditions/trigger conditions are spiked with equal final DMSO concentrations of 0.2% DMSO. 10 μL of 10×LPS (final conc. 200 ng/mL) solution are added to all wells except for the 'no trigger wells' where 10 μL medium is added. Supernatant is collected after 2 h (IL-10 determination) and after 20 h (TNFα determination) of LPS triggering. […]

Row | Structure (SMILES) | IL-10 FCmax median
1 | COc1cc(-c2cnc3cc(OCCN4CCOC[C@@H]4C)ccn23)cc(OC(F)F)c1C(=O)NC1CC1 [compound 233, N-cyclopropyl-2-(difluoromethoxy)-6-methoxy-4-[7-[2-[(3S)-3-methylmorpholin-4-yl]ethoxy]imidazo[1,2-a]pyridin-3-yl]benzamide] | ++ (>1.5-4.5)
2 | COc1cc(-c2cnc3cc(OCCN4CCOC[C@H]4C)ccn23)cc(OC(F)F)c1C(=O)NC1CC1 [compound 234, N-cyclopropyl-2-(difluoromethoxy)-6-methoxy-4-[7-[2-[(3R)-3-methylmorpholin-4-yl]ethoxy]imidazo[1,2-a]pyridin-3-yl]benzamide] | ++ (>1.5-4.5)
3 | COc1cc(-c2cnc3cc(OCC4(F)CN(C)C4)ccn23)cc2c1C(=O)N(CC(F)(F)F)CC2 [compound 252, 6-[7-[(3-fluoro-1-methyl-azetidin-3-yl)methoxy]imidazo[1,2-a]pyridin-3-yl]-8-methoxy-2-(2,2,2-trifluoroethyl)-3,4-dihydro isoquinolin-1-one] | ++ (>1.5-4.5)
4 | COc1cc(-c2cnc3cc(OCCCN4CCNCC4)ccn23)cc(OC(F)F)c1C(=O)NC1CC1 [compound 278, N-cyclopropyl-2-(difluoromethoxy)-6-methoxy-4-[7-(3-piperazin-1-ylpropoxy)imidazo[1,2-a]pyridin-3-yl]benzamide] | ++ (>1.5-4.5)
5 | COc1cc(-c2cnc3cc(OCCCN4CCCC(O)C4)ccn23)cc(OC(F)F)c1C(=O)NC1CC1 (stereo not drawn) [compound 328, N-cyclopropyl-2-(difluoromethoxy)-4-[7-[3-(3-hydroxy-1-piperidyl)propoxy]imidazo [1,2-a]pyridin-3-yl]-6-methoxy-benzamide] | ++ (>1.5-4.5)
6 | CCOC(=O)C1(F)CCN(CC(O)COc2ccn3c(-c4cc(OC)c(C(=O)NC5CC5)c(OC(F)F)c4)cnc3c2)CC1 (stereo not drawn) [compound 384, ethyl 1-[3-[3-[4-(cyclopropylcarbamoyl)-3-(difluoromethoxy)-5-methoxy-phenyl]imidazo[1,2-a]pyridin-7-yl]oxy-2-hydroxy-propyl]-4-fluoro-piperidine-4-carboxylate] | ++ (>1.5-4.5)
